Test results published in patent publication US8710065B2, “Tricyclic inhibitors of kinases” (AbbVie Inc., priority 2011, dated 2014).

Biological target: T1, GST-tagged-Wee1 kinase (Homo sapiens, UniProt P30291)
T1 construct: purchased Carnabio (Carna Biosciences) 05-177
Experiment: Wee1 time-resolved fluorescence equilibrium binding assay (displacement of Oregon Green-labeled ATP-competitive kinase probe)
Details: read-out: Wee-1 inhibition (Ki)
Outline: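 Time-resolved fluorescence equilibrium binding with GST-Wee1, measuring displacement of a rapidly reversible Oregon Green-labelled ATP-competitive probe by competitive inhibitors; values reported as Ki.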

T1 sequence (P30291 whole entry): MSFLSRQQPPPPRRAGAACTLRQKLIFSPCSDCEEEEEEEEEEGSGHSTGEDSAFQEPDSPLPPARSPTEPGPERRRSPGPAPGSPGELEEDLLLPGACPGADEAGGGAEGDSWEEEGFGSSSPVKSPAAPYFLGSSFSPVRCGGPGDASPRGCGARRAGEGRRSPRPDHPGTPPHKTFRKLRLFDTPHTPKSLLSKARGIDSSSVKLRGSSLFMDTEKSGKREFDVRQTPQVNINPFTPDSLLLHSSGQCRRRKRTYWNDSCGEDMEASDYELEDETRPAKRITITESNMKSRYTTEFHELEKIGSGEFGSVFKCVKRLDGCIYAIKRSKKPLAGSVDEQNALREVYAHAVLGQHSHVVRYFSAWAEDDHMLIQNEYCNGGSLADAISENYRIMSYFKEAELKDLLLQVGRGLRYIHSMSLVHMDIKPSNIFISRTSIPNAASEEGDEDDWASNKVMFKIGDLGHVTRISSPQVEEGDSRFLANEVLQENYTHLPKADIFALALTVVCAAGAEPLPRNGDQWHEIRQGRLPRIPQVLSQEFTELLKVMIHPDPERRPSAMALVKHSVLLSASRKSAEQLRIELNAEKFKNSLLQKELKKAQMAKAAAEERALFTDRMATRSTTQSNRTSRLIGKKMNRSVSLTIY

SMILES | Ki [nM]
O=c1c2cnc(Nc3ccc(CO)cc3)nc2n2ccnc2n1-c1ccccc1Cl [Example 87, 6-(2-chlorophenyl)-2-{[4-(hydroxymethyl)phenyl]amino}imidazo[1,2-a]pyrimido[5,4-e]pyrimidin-5(6H)-one] | 10 to 100
CC(=O)N1CCN(c2ccc(Nc3ncc4c(=O)n(-c5c(Cl)cccc5Cl)c5nccn5c4n3)cc2)CC1 [Example 214, 2-{[4-(4-acetylpiperazin-1-yl)phenyl]amino}-6-(2,6-dichlorophenyl)imidazo[1,2-a]pyrimido[5,4-e]pyrimidin-5(6H)-one] | < 10
CN1CCCc2cc(Nc3ncc4c(=O)n(-c5ccccc5Cl)c5nccn5c4n3)ccc21 [Example 92, 6-(2-chlorophenyl)-2-[(1-methyl-1,2,3,4-tetrahydroquinolin-6-yl)amino]imidazo[1,2-a]pyrimido[5,4-e]pyrimidin-5(6H)-one] | < 10
CC(C)N1C(=O)CSC1c1ccc(Nc2ncc3c(=O)n(-c4ccccc4Cl)c4nccn4c3n2)cc1 (stereo not shown) [Example 219, 6-(2-chlorophenyl)-2-({4-[4-oxo-3-(propan-2-yl)-1,3-thiazolidin-2-yl]phenyl}amino)imidazo[1,2-a]pyrimido[5,4-e]pyrimidin-5(6H)-one] | < 10
CCN1CCN(c2ccc(Nc3ncc4c(=O)n(-c5ccccc5Cl)c5nccn5c4n3)nc2)CC1 [Example 339, 6-(2-chlorophenyl)-2-{[5-(4-ethylpiperazin-1-yl)pyridin-2-yl]amino}imidazo[1,2-a]pyrimido[5,4-e]pyrimidin-5(6H)-one] | > 100
CC(=O)N1CCC(Nc2ccc(Nc3ncc4c(=O)n(-c5c(Cl)cccc5Cl)c5nccn5c4n3)cc2)CC1 [Example 321, 2-({4-[(1-acetylpiperidin-4-yl)amino]phenyl}amino)-6-(2,6-dichlorophenyl)imidazo[1,2-a]pyrimido[5,4-e]pyrimidin-5(6H)-one] | < 10
CC1(C)CN(CC(F)(F)F)Cc2cc(Nc3ncc4c(=O)n(-c5ccccc5Cl)c5nccn5c4n3)ccc21 [Example 162, 6-(2-chlorophenyl)-2-{[4,4-dimethyl-2-(2,2,2-trifluoroethyl)-1,2,3,4-tetrahydroisoquinolin-7-yl]amino}imidazo[1,2-a]pyrimido[5,4-e]pyrimidin-5(6H)-one] | 10 to 100
CN1CCN(c2ccc(Nc3ncc4c(=N)n(-c5ccccc5Cl)c5nccn5c4n3)cc2)CC1 [Example 333, 6-(2-chlorophenyl)-5-imino-N-[4-(4-methylpiperazin-1-yl)phenyl]-5,6-dihydroimidazo[1,2-a]pyrimido[5,4-e]pyrimidin-2-amine] | < 10
O=c1c2cnc(Nc3ccc(-n4cccn4)cc3)nc2n2ccnc2n1-c1ccccc1Cl [Example 89, 6-(2-chlorophenyl)-2-{[4-(1H-pyrazol-1-yl)phenyl]amino}imidazo[1,2-a]pyrimido[5,4-e]pyrimidin-5(6H)-one] | 10 to 100
O=c1c2cnc(Nc3ccc4c(c3)CCN(C3CC3)CC4)nc2n2ccnc2n1-c1ccccc1Cl [Example 184, 6-(2-chlorophenyl)-2-[(3-cyclopropyl-2,3,4,5-tetrahydro-1H-3-benzazepin-7-yl)amino]imidazo[1,2-a]pyrimido[5,4-e]pyrimidin-5(6H)-one] | < 10
O=c1c2cnc(Nc3ccc4c(c3)CCCNC4)nc2n2ccnc2n1-c1ccccc1Cl [Example 106, 6-(2-chlorophenyl)-2-(2,3,4,5-tetrahydro-1H-2-benzazepin-7-ylamino)imidazo[1,2-a]pyrimido[5,4-e]pyrimidin-5(6H)-one] | < 10
CC1(C)CN(S(N)(=O)=O)Cc2cc(Nc3ncc4c(=O)n(-c5c(F)cccc5Cl)c5nccn5c4n3)ccc21 [Example 317, 7-{[6-(2-chloro-6-fluorophenyl)-5-oxo-5,6-dihydroimidazo[1,2-a]pyrimido[5,4-e]pyrimidin-2-yl]amino}-4,4-dimethyl-3,4-dihydroisoquinoline-2(1H)-sulfonamide] | < 10
CN(C)CCCN1CCN(c2ccc(Nc3ncc4c(=O)n(-c5ccccc5Cl)c5nccn5c4n3)cc2)CC1 [Example 250, 6-(2-chlorophenyl)-2-[(4-{4-[3-(dimethylamino)propyl]piperazin-1-yl}phenyl)amino]imidazo[1,2-a]pyrimido[5,4-e]pyrimidin-5(6H)-one] | < 10
O=c1c2cnc(Nc3ccc(C4CCCN4)cc3)nc2n2ccnc2n1-c1ccccc1Cl (stereo not shown) [Example 71, 6-(2-chlorophenyl)-2-{[4-(pyrrolidin-2-yl)phenyl]amino}imidazo[1,2-a]pyrimido[5,4-e]pyrimidin-5(6H)-one] | < 10
CN1CCc2cc(Nc3ncc4c(=O)n(-c5ccccc5Cl)c5nccn5c4n3)ccc2C1(C)C [Example 133, 6-(2-chlorophenyl)-2-[(1,1,2-trimethyl-1,2,3,4-tetrahydroisoquinolin-6-yl)amino]imidazo[1,2-a]pyrimido[5,4-e]pyrimidin-5(6H)-one] | < 10
O=c1c2cnc(Nc3ccc(N4CCNCC4)nc3)nc2n2ccnc2n1-c1c(Cl)cccc1Cl [Example 198, 6-(2,6-dichlorophenyl)-2-{[6-(piperazin-1-yl)pyridin-3-yl]amino}imidazo[1,2-a]pyrimido[5,4-e]pyrimidin-5(6H)-one] | < 10
CC1(C)CN(C(=O)CO)Cc2cc(Nc3ncc4c(=O)n(-c5c(F)cccc5Cl)c5nccn5c4n3)ccc21 [Example 316, 6-(2-chloro-6-fluorophenyl)-2-{[2-(hydroxyacetyl)-4,4-dimethyl-1,2,3,4-tetrahydroisoquinolin-7-yl]amino}imidazo[1,2-a]pyrimido[5,4-e]pyrimidin-5(6H)-one] | < 10
O=C1COc2ccc(Nc3ncc4c(=O)n(-c5ccccc5Cl)c5nccn5c4n3)cc2N1 [Example 19, 6-(2-chlorophenyl)-2-[(3-oxo-3,4-dihydro-2H-1,4-benzoxazin-6-yl)amino]imidazo[1,2-a]pyrimido[5,4-e]pyrimidin-5(6H)-one] | 10 to 100
CC(C)n1c(=O)c2cnc(Nc3ccc4c(c3)CN(C)CC43CC3)nc2n2ccnc12 [Example 142, 2-[(2′-methyl-2′,3′-dihydro-1′H-spiro[cyclopropane-1,4′-isoquinolin]-7′-yl)amino]-6-(propan-2-yl)imidazo[1,2-a]pyrimido[5,4-e]pyrimidin-5(6H)-one] | 10 to 100
CC1(C)CN(CCF)Cc2cc(Nc3ncc4c(=O)n(-c5c(F)cccc5Cl)c5nccn5c4n3)ccc21 [Example 281, 6-(2-chloro-6-fluorophenyl)-2-{[2-(2-fluoroethyl)-4,4-dimethyl-1,2,3,4-tetrahydroisoquinolin-7-yl]amino}imidazo[1,2-a]pyrimido[5,4-e]pyrimidin-5(6H)-one] | < 10
CC1SC(c2ccc(Nc3ncc4c(=O)n(-c5ccccc5Cl)c5nccn5c4n3)cc2)NC1=O (stereo not shown) [Example 221, 6-(2-chlorophenyl)-2-{[4-(5-methyl-4-oxo-1,3-thiazolidin-2-yl)phenyl]amino}imidazo[1,2-a]pyrimido[5,4-e]pyrimidin-5(6H)-one] | 10 to 100
CN1CCN(c2c(F)cc(Nc3ncc4c(=O)n(-c5ccccc5Cl)c5nccn5c4n3)cc2F)CC1 [Example 347, 6-(2-chlorophenyl)-2-{[3,5-difluoro-4-(4-methylpiperazin-1-yl)phenyl]amino}imidazo[1,2-a]pyrimido[5,4-e]pyrimidin-5(6H)-one] | > 100
